According to PubChem BioAssay (NCI):
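Protocol summary: plate cells (96-well), add compound at 5 concentrations, incubate 48 h, interpolate endpoints linearly. Definition used: TGI = concentration required for complete inhibition of growth.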 Where a SMILES comes first, the peptide text is derived from it. [ ]: non-standard residue; d: D form. The star is where a group is joined. Iva = CC[C](C)(N)C(=O)O; Boc = CC(C)(C)OC(=O)*; X52 = C1CCC(=NO*)C1

Legend:
Test in all cases: inhibition of tumour cell growth, NCI panel, 48 h
A498 renal = test system: A498 renal
HCC-2998 colon = test system: HCC-2998 colon
HCT-15 colon = test system: HCT-15 colon
HOP-62 NSCLC = test system: HOP-62 NSCLC
IGROV1 ovarian = test system: IGROV1 ovarian
K-562 leukemia = test system: K-562 leukemia
MALME-3M melanoma = test system: MALME-3M melanoma
NCI-H460 lung = test system: NCI-H460 lung
NCI-H522 lung = test system: NCI-H522 lung
OVCAR-5 ovarian = test system: OVCAR-5 ovarian
RXF 393 renal = test system: RXF 393 renal
SF-268 CNS = test system: SF-268 CNS
SK-MEL-5 melanoma = test system: SK-MEL-5 melanoma
SN12C renal = test system: SN12C renal
SW-620 colon = test system: SW-620 colon
U251 CNS = test system: U251 CNS
UACC-257 melanoma = test system: UACC-257 melanoma
UACC-62 melanoma = test system: UACC-62 melanoma
UO-31 renal = test system: UO-31 renal
ACHN renal = test system: ACHN renal

| Structure (SMILES) | TGI (A498 renal) | TGI (HCC-2998 colon) | TGI (HCT-15 colon) | TGI (HOP-62 NSCLC) | TGI (IGROV1 ovarian) | TGI (K-562 leukemia) | TGI (MALME-3M melanoma) | TGI (NCI-H460 lung) | TGI (NCI-H522 lung) | TGI (OVCAR-5 ovarian) | TGI (RXF 393 renal) | TGI (SF-268 CNS) | TGI (SK-MEL-5 melanoma) | TGI (SN12C renal) | TGI (SW-620 colon) | TGI (U251 CNS) | TGI (UACC-257 melanoma) | TGI (UACC-62 melanoma) | TGI (UO-31 renal) | TGI (ACHN renal) |
| --- | --- | --- | --- | --- | --- | --- | --- | --- | --- | --- | --- | --- | --- | --- | --- | --- | --- | --- | --- | --- |
| COc1cc2cc3c4cc(OC)c(OC)cc4cc[n+]3cc2cc1OC | > 100 µM | > 100 µM | > 100 µM | > 100 µM | > 100 µM | > 100 µM | > 100 µM | > 100 µM | > 100 µM | > 100 µM | > 100 µM | > 100 µM | > 100 µM | > 100 µM | > 100 µM | > 100 µM | > 100 µM | > 100 µM | > 100 µM | – |
| O=[N+]([O-])c1ccc(N=Nc2c(O)ccc3ccccc23)c([N+](=O)[O-])c1 | > 100 µM | > 100 µM | > 100 µM | > 100 µM | > 100 µM | > 71.4 µM | > 100 µM | > 100 µM | > 100 µM | > 100 µM | > 100 µM | > 100 µM | > 100 µM | > 100 µM | > 100 µM | > 100 µM | > 100 µM | > 100 µM | > 100 µM | > 100 µM |
| CC(C)OP(=O)(OC(C)C)c1nc(-c2ccccc2)n(-c2ccc([N+](=O)[O-])cc2)n1 | > 100 µM | > 100 µM | > 100 µM | > 100 µM | > 100 µM | > 100 µM | > 100 µM | > 100 µM | > 100 µM | > 100 µM | – | > 100 µM | > 100 µM | > 100 µM | > 100 µM | > 100 µM | > 100 µM | > 100 µM | > 100 µM | > 100 µM |
| COc1ccc(C2SCC(=O)N2NC(=O)c2ccncc2)cc1F (centres undefined) | > 100 µM | > 100 µM | > 100 µM | > 100 µM | – | – | > 100 µM | > 100 µM | > 100 µM | > 100 µM | > 100 µM | > 100 µM | > 100 µM | > 100 µM | > 100 µM | > 100 µM | > 100 µM | – | – | > 100 µM |
| O=C(Nc1ccccc1)c1cc2ccccc2c(N=Nc2ccc([N+](=O)[O-])cc2)c1O | – | – | > 100 µM | > 100 µM | > 100 µM | > 100 µM | > 100 µM | – | > 100 µM | > 100 µM | > 100 µM | > 100 µM | > 100 µM | > 100 µM | > 100 µM | > 100 µM | > 100 µM | > 100 µM | > 100 µM | > 100 µM |
| CCC(C)(NC(=O)C(C)NC(=O)OC(C)(C)C)C(=O)NC(C)C(=O)NC(C)(CC)C(=O)ON=C1CCCC1 (centres undefined) (Boc-A[Iva]A[Iva]-X52; configuration not given here) | > 100 µM | > 100 µM | > 100 µM | > 100 µM | > 100 µM | > 100 µM | > 100 µM | > 100 µM | > 100 µM | > 100 µM | > 100 µM | – | > 100 µM | > 100 µM | – | > 100 µM | – | > 100 µM | > 100 µM | – |
| C1CSCCSCCSCCSC1 | > 100 µM | > 100 µM | > 100 µM | > 100 µM | > 100 µM | – | – | > 100 µM | > 100 µM | > 100 µM | > 100 µM | > 100 µM | > 100 µM | > 100 µM | > 100 µM | > 100 µM | > 100 µM | > 100 µM | > 100 µM | > 100 µM |
| CCCC[C@H]1[C@@H](OCOc2ccccc2)COC(=O)N1[C@H](C)c1ccccc1 | 29.4 µM | 35.8 µM | 44.6 µM | 29.8 µM | > 61.8 µM | > 100 µM | 33.5 µM | 32.1 µM | 29.2 µM | 43.6 µM | 47.6 µM | 38.7 µM | 16.9 µM | 21.9 µM | > 100 µM | 42.3 µM | 29.5 µM | 30.2 µM | > 45.1 µM | 47.8 µM |
| O=P1(Oc2ccc(Cl)cc2Cl)Oc2ccc3ccccc3c2-c2c(ccc3ccccc23)O1 | > 95.4 µM | 61.4 µM | > 77.1 µM | 40 µM | > 71.8 µM | > 100 µM | 46.4 µM | > 90.6 µM | 50.7 µM | > 100 µM | 34.7 µM | > 100 µM | > 100 µM | > 100 µM | > 100 µM | 47.5 µM | > 100 µM | 70.4 µM | 41.3 µM | – |
